#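 Briefly, cells in 96-well plates were exposed to five compound concentrations for 48 h, and endpoints were estimated by linear interpolation. TGI is the concentration that stops growth completely.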 Where a SMILES comes first, the peptide text is derived from it. The star is where a group is joined. OBn = c1ccc(CO*)cc1
# How the values were obtained:
# Experiment in all cases: NCI tumour cell line growth inhibition, 48 h
# [1] = tested on: U251 CNS
# [2] = tested on: SK-OV-3 ovarian
# [3] = tested on: MALME-3M melanoma
# [4] = tested on: SW-620 colon
# [5] = tested on: TK-10 renal
# [6] = tested on: OVCAR-3 ovarian
# [7] = tested on: UACC-62 melanoma
# [8] = tested on: SF-268 CNS
# [9] = tested on: ACHN renal
# [10] = tested on: NCI-H460 lung
# [11] = tested on: HOP-92 NSCLC
SMILES,TGI [1],TGI [2],TGI [3],TGI [4],TGI [5],TGI [6],TGI [7],TGI [8],TGI [9],TGI [10],TGI [11]
CC(C)N1CCCOC(c2ccc([N+](=O)[O-])cc2)O1 (stereo unspecified),> 100 µM,> 100 µM,> 100 µM,> 100 µM,> 100 µM,> 100 µM,> 100 µM,> 100 µM,> 100 µM,> 100 µM,> 100 µM
O=C1c2ccccc2C(=O)c2c(O)c(O)cc(O)c21,> 100 µM,82.7 µM,> 100 µM,> 100 µM,> 100 µM,64.3 µM,64.8 µM,> 100 µM,> 100 µM,> 100 µM,76.2 µM
CCCCCNC1=CC(=O)c2ccccc2C1=O,34 µM,> 84.7 µM,> 95.3 µM,> 100 µM,52.3 µM,65 µM,> 100 µM,> 77.1 µM,> 100 µM,> 100 µM,59.1 µM
Nc1nncs1,> 5000 µM,928 µM,> 5000 µM,> 5000 µM,> 5000 µM,> 5000 µM,> 3890 µM,> 5000 µM,> 5000 µM,3750 µM,4660 µM
O=c1c2c3c(sc2nc2n1N=CN(c1ccc(Cl)cc1)C2)CCCC3,> 100 µM,> 100 µM,97.9 µM,> 100 µM,> 100 µM,> 100 µM,> 100 µM,> 100 µM,> 100 µM,> 100 µM,> 100 µM
CC(C)(CCCCC(C)(C)NCC1COc2ccccc2O1)NCC1COc2ccccc2O1 (stereo unspecified),> 10 µM,> 10 µM,4.65 µM,> 10 µM,> 10 µM,> 10 µM,9.93 µM,> 10 µM,> 10 µM,> 10 µM,7.43 µM
Nc1ccc(C(=O)NN2C(=O)C(Cl)C2c2ccccc2O)cc1 (stereo unspecified),> 100 µM,> 100 µM,> 100 µM,> 100 µM,> 100 µM,> 100 µM,> 100 µM,> 100 µM,> 100 µM,> 100 µM,> 100 µM
COC(=O)[C@]12CSC[C@H]1C[C@H](c1ccc(N(C)C)cc1)N2,> 100 µM,> 100 µM,> 100 µM,> 100 µM,> 100 µM,> 100 µM,> 100 µM,> 100 µM,> 100 µM,> 100 µM,> 100 µM
CNC(=S)NNC1=NCCCCN1,> 100 µM,> 100 µM,> 100 µM,> 100 µM,> 100 µM,> 100 µM,> 100 µM,> 100 µM,> 100 µM,> 100 µM,> 100 µM
Cc1cc(NCC2CC/C(=C\C=C\c3ccccc3)C2=O)no1 (stereo unspecified),> 100 µM,> 100 µM,> 100 µM,> 100 µM,> 100 µM,> 100 µM,> 100 µM,> 100 µM,> 100 µM,> 100 µM,> 100 µM
O=C(/C=C/c1cccs1)c1ccc(C(=O)/C=C/c2cccs2)cc1,> 100 µM,> 100 µM,> 100 µM,> 100 µM,> 100 µM,> 100 µM,> 100 µM,> 100 µM,> 100 µM,> 100 µM,> 100 µM
COc1cc(C2S/C(=C/c3ccccc3)C(=O)N2c2ccc([N+](=O)[O-])cc2)cc(OC)c1OC (stereo unspecified),> 100 µM,> 100 µM,> 100 µM,> 100 µM,> 100 µM,> 100 µM,> 100 µM,> 100 µM,> 100 µM,> 100 µM,> 100 µM
C=C1CC(COc2ccc3ccc(=O)oc3c2)(c2ccccc2)OC1=O (stereo unspecified),22.2 µM,16.1 µM,6.77 µM,1.94 µM,2.99 µM,3.36 µM,2.92 µM,11.9 µM,3.61 µM,28 µM,2.15 µM
Cc1n[nH]c(=O)n1/N=C/c1cccnc1,> 100 µM,> 100 µM,> 100 µM,> 100 µM,> 100 µM,> 100 µM,> 100 µM,> 100 µM,> 100 µM,> 100 µM,> 100 µM
O=c1[nH]c(=O)n(C2CC(O)C(CO)O2)c2nc3ccc4ccccc4c3nc12 (stereo unspecified),> 100 µM,> 100 µM,> 100 µM,> 100 µM,> 100 µM,> 100 µM,> 100 µM,> 100 µM,> 100 µM,> 100 µM,> 100 µM
CC1(C)N=C(N)N=C(N)N1c1cccc(OCc2cccc([N+](=O)[O-])c2)c1,98.9 µM,> 100 µM,> 100 µM,> 100 µM,> 81.8 µM,> 73.9 µM,> 100 µM,> 100 µM,> 100 µM,51.6 µM,> 100 µM
CC(C)(C)C(=O)Nc1cccc(-c2ccc[nH]2)n1,> 100 µM,> 100 µM,> 100 µM,> 100 µM,> 100 µM,> 100 µM,> 100 µM,> 100 µM,> 100 µM,> 100 µM,> 100 µM
CC(C)C(Cl)CC/C(CBr)=C(\Cl)CCl (stereo unspecified),23.1 µM,17.8 µM,19.6 µM,4.26 µM,28 µM,10.4 µM,6.16 µM,32.1 µM,29.6 µM,29.3 µM,7.73 µM

SMILES,TGI [1],TGI [2],TGI [3],TGI [4],TGI [5],TGI [6],TGI [7],TGI [8],TGI [9],TGI [10],TGI [11]
NC(CCC(=O)OCc1ccccc1)C(=O)NC(CCC(=O)OCc1ccccc1)C(=O)O (stereo unspecified) (H-Glu(OBn)-Glu(OBn)-OH; configuration not given here),> 100 µM,> 100 µM,> 100 µM,> 100 µM,> 100 µM,> 100 µM,> 100 µM,> 100 µM,> 100 µM,> 100 µM,> 100 µM
COc1cc(/C=N/NC2=NCCCN2)ccc1O,> 100 µM,> 100 µM,> 100 µM,> 100 µM,> 100 µM,> 100 µM,> 100 µM,> 100 µM,> 100 µM,> 100 µM,> 100 µM
O=C1CCSc2c(cnc3ccccc23)N1,> 100 µM,> 100 µM,> 100 µM,> 100 µM,> 100 µM,> 100 µM,> 100 µM,> 100 µM,> 100 µM,> 100 µM,> 100 µM
COc1ccc(N2C(=O)/C(=C\c3cc(OC)c(OC)c(OC)c3)S(=O)(=O)C2c2ccccc2)cc1 (stereo unspecified),> 100 µM,> 100 µM,> 100 µM,> 100 µM,> 100 µM,> 100 µM,> 100 µM,> 100 µM,> 100 µM,> 100 µM,> 100 µM
CN(CCO)c1nc2c(c(=O)[nH]1)CNCC2,> 100 µM,> 100 µM,> 100 µM,> 100 µM,> 100 µM,> 100 µM,> 100 µM,> 100 µM,> 100 µM,> 100 µM,> 100 µM
COc1ccc(CCN(C)C(=O)CC(C#N)(c2ccccc2)c2ccc(OC)c(OC)c2)cc1OC (stereo unspecified),> 100 µM,> 100 µM,> 100 µM,> 100 µM,> 100 µM,> 100 µM,> 100 µM,> 100 µM,> 100 µM,> 100 µM,> 76 µM
C#C[C@]1(O)CC[C@H]2[C@@H]3CCC4=C/C(=N\OCCN5CCCC5)CC[C@]4(C)[C@H]3CC[C@@]21C,> 49.4 µM,54.6 µM,23.4 µM,> 49.5 µM,38.3 µM,27.1 µM,27.5 µM,30.1 µM,47.2 µM,40.6 µM,> 100 µM
C=CC1(c2ccc(Br)cc2)OCCCO1,> 100 µM,> 100 µM,> 100 µM,> 100 µM,> 100 µM,> 100 µM,> 100 µM,> 100 µM,> 100 µM,> 100 µM,> 100 µM
CCOC(=O)Oc1cc2c(ccn2C)c2c1c1ccccc1n2C(=O)OCC,> 100 µM,> 100 µM,> 100 µM,> 100 µM,> 100 µM,> 100 µM,> 100 µM,> 100 µM,> 100 µM,> 100 µM,> 100 µM
CC(=C(C(=O)O)C(=O)O)c1cc(-c2cccs2)cc(-c2ccc(Cl)cc2)c1O,29.3 µM,> 82.5 µM,41 µM,43.6 µM,31.9 µM,33.6 µM,35.7 µM,54.9 µM,29.4 µM,37.3 µM,34.3 µM
N=C(N)C1CN(CC=O)C(=O)NC1=O (stereo unspecified),> 100 µM,> 100 µM,> 100 µM,> 100 µM,> 100 µM,> 100 µM,> 100 µM,> 100 µM,> 100 µM,> 100 µM,> 100 µM
O=C1OC2(c3ccc(O)cc3Oc3cc(O)ccc32)c2c1c(-c1ccccc1)c(-c1ccccc1)c(-c1ccccc1)c2-c1ccccc1,31.5 µM,> 100 µM,44.6 µM,52 µM,59.6 µM,> 100 µM,32.9 µM,53.1 µM,40.9 µM,33.7 µM,36.8 µM
O=Cc1ccc2c(c1)CC1(C2)Cc2ccc(C=O)cc2C1,41.7 µM,> 100 µM,46.1 µM,39.2 µM,65 µM,34.1 µM,23.8 µM,44.6 µM,62.1 µM,32.8 µM,53.2 µM
O=C1/C(=C/c2ccccc2)CCCC/C1=C\c1ccccc1,> 100 µM,> 100 µM,> 100 µM,> 100 µM,> 100 µM,> 100 µM,> 100 µM,> 100 µM,> 100 µM,> 100 µM,> 100 µM
CCOC(=O)c1c(-c2ccccc2)[nH]c2ccc(Cl)cc2c1=O,> 100 µM,> 100 µM,> 100 µM,> 100 µM,> 100 µM,38.9 µM,> 100 µM,> 100 µM,93.2 µM,> 100 µM,73.6 µM
COC(=O)c1nc2c3c(cccc3c1C(=O)OC)Nc1ccccc1-2,> 100 µM,> 100 µM,93 µM,> 100 µM,> 100 µM,> 100 µM,55.7 µM,> 100 µM,> 100 µM,77.9 µM,50.2 µM
CO[C@H](c1ccccc1)[C@H](O)[C@](O)(c1ccccc1)P(=O)(OC)OC,> 100 µM,> 100 µM,> 100 µM,> 100 µM,> 100 µM,> 100 µM,> 100 µM,> 100 µM,> 100 µM,> 100 µM,> 100 µM
CC1=[N+]([O-])C(C)(C)N(O)C1(C)C,> 100 µM,> 100 µM,> 100 µM,> 100 µM,> 100 µM,> 100 µM,> 100 µM,> 100 µM,> 100 µM,> 100 µM,> 100 µM
